Assay results: ChEMBL document CHEMBL1157901, “Discovery of a tetrahydropyrimidin-2(1H)-one derivative (TAK-442) as a potent, selective, and orally active factor Xa inhibitor” (J Med Chem, 2010)

Assay: Metabolic stability in human liver microsomes assessed as compound remaining after 120 mins by HPLC
Type: ADME, Microsome
Conditions: read-out: Activity

remaining at 2 h	Compound
70.5%	Cc1ncc2n1C(=O)N(C1CCN(C(=O)CCS(=O)(=O)c3ccc4cc(Cl)ccc4c3)CC1)C2

Assay: Metabolic stability in monkey liver microsomes assessed as compound remaining after 120 mins by HPLC
Type: ADME, Macaca mulatta, Microsome
Conditions: rhesus monkey, read-out: Activity

remaining at 2 h	Compound
99.9%	Cc1ncc2n1C(=O)N(C1CCN(C(=O)CCS(=O)(=O)c3ccc4cc(Cl)ccc4c3)CC1)C2

Assay: Octanol-water partition coefficient, log D at pH 7.4
Type: physicochemical
Conditions: not given

Compound	logD
Cc1ncc2n1C(=O)N(C1CCN(C(=O)[C@H](O)CS(=O)(=O)c3ccc4cc(Cl)ccc4c3)CC1)C2	2.13
O=C([C@H](O)CS(=O)(=O)c1ccc2cc(Cl)ccc2c1)N1CCC(n2cc[nH]c2=O)CC1	1.79
O=C([C@H](O)CS(=O)(=O)c1ccc2cc(Cl)ccc2c1)N1CCC(N2Cc3ccccc3C2=O)CC1	2.58
O=C([C@H](O)CS(=O)(=O)c1ccc2cc(Cl)ccc2c1)N1CCC(N2CCCS2(=O)=O)CC1	1.69
O=C([C@H](O)CS(=O)(=O)c1ccc2cc(Cl)ccc2c1)N1CCC(N2CCNC2=O)CC1	1.73
O=C([C@H](O)CS(=O)(=O)c1ccc2cc(Cl)ccc2c1)N1CCC(N2C[C@@H]3CCCN3C2=O)CC1	2.16
O=C([C@H](O)CS(=O)(=O)c1ccc2cc(Cl)ccc2c1)N1CCC(N2C[C@H]3CCCN3C2=O)CC1	2.16
O=C([C@H](O)CS(=O)(=O)c1ccc2cc(Cl)ccc2c1)N1CCC(N2CCOC2=O)CC1	1.75
O=C([C@H](O)CS(=O)(=O)c1ccc2cc(Cl)ccc2c1)N1CCC(N2Cc3cccn3C2=O)CC1	2.6

Now from value to compound:

logD	Compound
1.56	O=C([C@H](O)CS(=O)(=O)c1ccc2cc(Cl)ccc2c1)N1CCC(N2CCCC2)CC1
2.19	O=C([C@H](O)CS(=O)(=O)c1ccc2cc(Cl)ccc2c1)N1CCC(N2CCCCC2=O)CC1
1.85	O=C([C@H](O)CS(=O)(=O)c1ccc2cc(Cl)ccc2c1)N1CCC(N2NCCCC2=O)CC1
1.81	O=C([C@H](O)CS(=O)(=O)c1ccc2cc(Cl)ccc2c1)N1CCC(N2CCCNC2=O)CC1 [LETAXABAN]
1.85	O=C([C@H](O)CS(=O)(=O)c1ccc2cc(Cl)ccc2c1)N1CCC(N2CCOCC2=O)CC1
2.52	O=C([C@H](O)CS(=O)(=O)c1ccc2cc(Cl)ccc2c1)N1CCC(N2CCCCCC2=O)CC1
1.67	O=C([C@H](O)CS(=O)(=O)c1ccc2cc(Cl)ccc2c1)N1CCC(N2CCCOC2=O)CC1
1.96	O=C([C@H](O)CS(=O)(=O)c1ccc2cc(Cl)ccc2c1)N1CCC(N2CCCC2=O)CC1
